For one experiment, the target named is T1, human α4β2 (LS) nAChR (Homo sapiens, UniProt P17787+P43681).
T1 construct: expressed in transfected cells; host or cells: Xenopus laevis oocytes, mRNA injection, 10 ng α4 and 1 ng β2
The experiment is described as follows: Two-electrode voltage-clamp recordings, Xenopus laevis oocytes expressing human α4β2 (LS) nAChR. The experiment is classed as cell-based. From the text: The human α7 nAChR subunit was cloned in the pCDNA3.1 vector.
For the generation of the mRNA for injection, the plasmid DNAs of α3, α4, β2, and β4 were linearized with the NotI restriction endonuclease (New England Biolabs) and the plasmid DNA of α7 was linearized with the XbaI restriction endonuclease (New England Biolabs). The mRNAs of α3, α4, β2, and β4 were generated by in vitro transcription using the mMESSAGE mMACHINE SP6 Transcription Kit (Invitrogen). For the generation of α7 mRNA, the mMESSAGE mMACHINE T7 Transcription Kit (Invitrogen) was used. For the separation of the DNA and mRNA, a phenol–chloroform extraction (Chomczynski and Sacchi [2006]) was performed. The mRNA was then obtained by ethanol precipitation from the aqueous phase; for quantification, the BioPhotometer (Eppendorf) was used.
The recordings of human α7, α3β4, α4β2, and α4β4 nAChRs expressed in Xenopus laevis oocytes (EcoCyte Bioscience) were performed in two-electrode voltage-clamp mode using the Roboocyte2 system and the corresponding software (version 1.4.1; Multi Channel Systems MCS). Prior to the recordings, the oocytes were maintained at 19 °C in modified Barth’s solution containing [mM]: 88 NaCl, 1 KCl, 0.33 Ca(NO3)2, 0.82 MgSO4, 2.4 NaHCO3, 0.41 CaCl2, 5 Tris, 100 U/ml penicillin, 100 µg/ml streptomycin, pH 7.4.
To express human α7 nAChR, we injected 50 nl of mRNA solution (30 ng mRNA) per oocyte, using the Roboinject and the corresponding software (version 1.2.1; Multi Channel Systems MCS). […]
The baseline correction of voltage-clamp oocyte recordings was performed with the Roboocyte2 + software (version 1.4.3; Multi Channel Systems MCS, Germany). The maximal current influx and further analysis were executed in scripts written in R. In the antagonist experiments with oocytes, the maximal inward current was determined for the last response of each period (control, three antagonist concentrations, and washout).

The subject of the next experiment is LUHMES neurons. The experiment can be described thus: Single-cell Ca2+-imaging of LUHMES neurons. Particulars: single-cell time-lapse fluorescence microscopy. The experiment is classed as cell-based, human. The procedure: For Ca^2+-imaging experiments with a higher resolution on the single-cell level, the Cell Observer (Carl Zeiss Microscopy) was used. The Ca^2+-sensitive dye, the cell handling before the experiment, and the buffer were the same as described above for the experiments with the high-throughput FDSS/µCELL system. The recordings were performed with 2 × 2 binning and a 42 ms exposure time. The compounds were applied after a baseline recording of at least 10 s.
The single-cell Ca^2+-imaging recordings were exported and analyzed in Fiji ImageJ (version 1.52i) to get the average fluorescence signal of each cell. These signals were further analyzed in R, where a threshold detection was performed to detect responding cells. For this, the offset was corrected by subtracting the mean of 20–65% of the fluorescence signal of the pre-application period from the recording, to be robust against spontaneous activity. The threshold was defined as mean + 3 * SD of the negative control recordings, during the detection phase of 6.5 s during the application.

A further experiment has as its target T2, human α3β4 nAChR (Homo sapiens, UniProt P30926+P32297).
T2 construct: expressed in transfected cells; host or cells: Xenopus laevis oocytes, mRNA injection, 0.33 ng α3 and 3.33 ng β4
The experiment is described as follows: Two-electrode voltage-clamp recordings, Xenopus laevis oocytes expressing human α3β4 nAChR. The experiment is classed as cell-based. In general terms: In two-electrode clamp one electrode senses voltage and the other passes current.

T2 sequence (P32297 32-505): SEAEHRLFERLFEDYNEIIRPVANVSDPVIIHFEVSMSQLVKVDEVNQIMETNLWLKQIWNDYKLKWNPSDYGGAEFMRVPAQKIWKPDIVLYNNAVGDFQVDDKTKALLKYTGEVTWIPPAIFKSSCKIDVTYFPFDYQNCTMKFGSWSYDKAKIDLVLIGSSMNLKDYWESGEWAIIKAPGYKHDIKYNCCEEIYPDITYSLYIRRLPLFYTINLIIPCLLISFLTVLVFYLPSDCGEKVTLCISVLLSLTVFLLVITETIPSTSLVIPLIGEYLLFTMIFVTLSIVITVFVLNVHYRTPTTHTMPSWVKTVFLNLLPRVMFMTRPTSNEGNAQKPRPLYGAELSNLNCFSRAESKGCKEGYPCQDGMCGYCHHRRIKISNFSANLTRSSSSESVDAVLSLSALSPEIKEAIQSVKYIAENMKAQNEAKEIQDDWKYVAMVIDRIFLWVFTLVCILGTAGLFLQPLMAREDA
T2 sequence (P30926 22-498): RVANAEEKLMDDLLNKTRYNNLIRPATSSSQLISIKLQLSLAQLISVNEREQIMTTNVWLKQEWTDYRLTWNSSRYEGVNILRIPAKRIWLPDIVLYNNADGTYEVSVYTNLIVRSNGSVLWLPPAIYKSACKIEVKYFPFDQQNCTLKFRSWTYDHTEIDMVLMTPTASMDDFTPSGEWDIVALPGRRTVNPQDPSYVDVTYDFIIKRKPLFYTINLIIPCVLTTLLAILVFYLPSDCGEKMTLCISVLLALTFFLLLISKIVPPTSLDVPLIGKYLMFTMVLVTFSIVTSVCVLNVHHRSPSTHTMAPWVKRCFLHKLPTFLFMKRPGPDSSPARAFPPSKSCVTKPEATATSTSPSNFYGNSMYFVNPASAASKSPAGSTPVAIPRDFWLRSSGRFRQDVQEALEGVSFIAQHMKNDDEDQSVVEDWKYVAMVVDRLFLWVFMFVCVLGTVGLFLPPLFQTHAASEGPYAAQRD
T1 sequence (P43681 27-627): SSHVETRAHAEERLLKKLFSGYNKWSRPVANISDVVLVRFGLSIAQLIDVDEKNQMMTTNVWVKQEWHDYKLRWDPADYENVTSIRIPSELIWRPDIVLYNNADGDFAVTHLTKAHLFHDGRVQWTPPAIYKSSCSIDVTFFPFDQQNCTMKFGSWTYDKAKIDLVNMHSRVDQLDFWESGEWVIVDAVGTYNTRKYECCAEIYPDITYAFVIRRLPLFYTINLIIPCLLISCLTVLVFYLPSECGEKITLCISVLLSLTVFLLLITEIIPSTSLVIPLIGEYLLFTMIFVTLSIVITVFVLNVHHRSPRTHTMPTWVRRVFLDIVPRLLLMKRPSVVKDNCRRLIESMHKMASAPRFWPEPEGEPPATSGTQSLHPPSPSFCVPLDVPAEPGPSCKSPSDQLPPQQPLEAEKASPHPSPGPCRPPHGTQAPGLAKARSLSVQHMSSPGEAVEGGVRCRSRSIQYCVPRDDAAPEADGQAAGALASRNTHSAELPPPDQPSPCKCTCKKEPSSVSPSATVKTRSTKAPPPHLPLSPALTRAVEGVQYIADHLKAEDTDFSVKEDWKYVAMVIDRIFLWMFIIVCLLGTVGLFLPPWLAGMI
T1 sequence (P17787 26-502): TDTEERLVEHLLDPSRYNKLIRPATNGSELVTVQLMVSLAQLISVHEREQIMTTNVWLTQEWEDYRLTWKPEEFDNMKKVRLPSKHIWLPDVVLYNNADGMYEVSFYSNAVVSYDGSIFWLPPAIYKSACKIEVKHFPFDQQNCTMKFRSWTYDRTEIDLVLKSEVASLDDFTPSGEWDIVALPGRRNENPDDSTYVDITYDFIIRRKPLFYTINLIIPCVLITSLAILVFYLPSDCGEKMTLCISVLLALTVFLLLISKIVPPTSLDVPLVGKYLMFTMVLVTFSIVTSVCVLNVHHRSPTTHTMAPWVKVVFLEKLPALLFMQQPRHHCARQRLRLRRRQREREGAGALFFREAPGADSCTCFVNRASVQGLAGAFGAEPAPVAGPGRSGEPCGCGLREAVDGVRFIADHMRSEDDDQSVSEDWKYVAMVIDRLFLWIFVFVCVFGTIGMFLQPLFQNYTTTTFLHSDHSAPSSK

In the case of `NC1=NCCN1Cc1ccc(Cl)nc1` [DN-IMI, desnitro-imidacloprid], the values for the estimated maximum on human α4β2 (LS) nAChR (normalized to nicotine (100 µM)) and at human α3β4 nAChR (normalized to nicotine (1 mM)) were ~ 1.22 and ~ 0.65, respectively. The figures for the EC50 on human α4β2 (LS) nAChR (read-out: relative pEC50 (inward current amplitude) (converted)) and at human α3β4 nAChR were 5.01 µM and 12.6 µM, respectively. In addition, the “percentage of responsive cells” value with LUHMES neurons is on record as ~ 80%. Also, at human α3β4 nAChR (from curve-fitted concentration–response data), the “absolute EC25” value is 5.2 µM.

The values are drawn from paper PMC8536575, “Acute effects of the imidacloprid metabolite desnitro-imidacloprid on human nACh receptors relevant for neuronal signaling” (Archives of Toxicology, 2021).
